Assay results: patent US11260050B2, “Combination of cotinine plus antioxidant for treatment-resistant depression and correction of astrocytes functional deficit induced by depression and other neuropathological” (UNIVERSIDAD SAN SEBASTIAN, priority 2017, dated 2022)

Key:
[1] = tested on: conditioned mice; assay: Fear retention and extinction tests after fear conditioning (Example 4); format: in vivo, Mice C57BL/6
Protocol: (§1) Three-month-old mice (n=5-6/condition) were weighed and assigned to treatment groups. Mice were treated with vehicle or drugs, starting two h after fear conditioning and daily after behavioral testing until euthanasia. Mice received daily treatments with 1. PBS (phosphate buffer saline, pH 7.4) via intranasal; 2. Cotinine (10 mg/ml) dissolved in PBS via intranasal (IN Cot, 24 μl); 3. Krill oil dissolved in PBS, via intranasal (48 mg/ml, 24 μl); 4. Cotinine (10 mg/ml) plus krill oil dissolved in PBS, via intranasal (48 mg/ml, 24 μl); 5.
(§2) For intranasal delivery, mice were hand-restrained, placed in a supine position, and given two 12 μl drops of cotinine solutions, or PBS, into both nares consecutively. Mice were given an extra 12 μl treatment drop if the subject forcibly ejected or sneezed out the solution. Mice were held supine for 5-10 seconds after delivery to ensure that all fluid was inhaled.
Contextual fear conditioning was performed as described. The conditioning chamber used (33 cm×20 cm×22 cm) is surrounded by a sound-attenuating box with a camera connected to freeze frame software (MED Associates Inc.) and equipped to provide a background white noise (72 dB). The conditioning chamber contains in one side a speaker and in the opposite side has a 24V light, and a 36-bar insulated shock grid floor. To perform this test, each mouse was placed in the conditioning chamber for 2 min before the onset of a discrete tone (a sound that will last 30 seconds (sec) at 2,800 Hz and 85 dB). In the last two seconds of this tone, mice received a foot shock of 1 mA, kept in the conditioning chamber for 2 min and returned to their home cages. Between trials, the chamber was sanitized with 70% ethanol and dried. Freezing behavior was defined as the absence of all movement except the one needed for breathing was assessed using the FreezeView Software (MED Associates Inc.).
Fear retention and extinction experiments were performed as described, using the same cohorts of mice and reproduced in two separate experiments. To assess fear retention and mice underwent re-exposure to the conditioning chamber in the absence of an unconditioned stimulus (shock or auditory cues) for 3 minutes (min) in daily extinction trials. Freezing behavior was measured using the ANY-Maze® software (Stoelting CO, USA). The extinction trials were continued until the decrease in freezing behavior reached a stable level.

[2] = tested on: conditioned mice; assay: Forced swim test after fear conditioning and extinction (Example 4); format: in vivo, Mice C57BL/6; conditions: FC mice after extinction; Tukey: cotinine p<0.001, combination p<0.005, sertraline p<0.05
Protocol: as §1, §2

Compound: CN[C@H]1CC[C@@H](c2ccc(Cl)c(Cl)c2)c2ccccc21.Cl [Sertraline, (1S,4S)-4-(3,4-dichlorophenyl)-1,2,3,4-tetrahydro-N-methyl-1-naphthalenamine hydrochloride, reference compound]
- freezing behavior during daily extinction trials (speed of fear extinction) ([1]; 5 days of extinction, daily treatment): overall slower extinction of fear than controls
- fear reaction (freezing) in the retention test ([1]; treatment started 2 h after FC, IN cotinine 10 mg/ml, IN KO 48 mg/ml, oral sertraline 3 mg/kg): no significant effects
- depressive-like behavior (immobility) in the forced swim test [2]: significantly decreased depressive-like behavior
